Measurements: patent publication US20160120848A1, “SPECIFIC CANCER TREATMENT REGIMES WITH GANETESPIB” (SYNTA PHARMACEUTICALS CORP., priority 2013, published 2016)

How the values were obtained:
[1] = system: advanced non-small-cell lung cancer (NSCLC) of non-squamous histology; assay: Phase I study of ganetespib in combination with docetaxel in advanced NSCLC; format: in vivo, patients; details: ganetespib 150 mg/m^2 in combination with docetaxel (75 or 60 mg/m^2)
Description: In the first cohort (Cohort 1), patients with advanced solid tumor malignancies are treated with 75 mg/m^2 of ganetespib monotherapy. In the second cohort (Cohort 2), patients with advanced solid tumor malignancies are treated with 150 mg/m^2 of ganetespib monotherapy. In the third cohort (Cohort 3), patients with advanced NSCLC are treated with ganetespib (150 mg/m^2) in combination with docetaxel (75 mg/m^2). In the case of intolerability of the third cohort's combination regimen, in a fourth cohort (Cohort 4), patients with advanced NSCLC are treated with ganetespib (150 mg/m^2) in combination with docetaxel (60 mg/m^2).
Patients with advanced NSCLC, excluding patients with squamous cell histology, are administered ganetespib and docetaxel in Cohort 3.
The purpose of this cohort is to explore the PK and tolerability of ganetespib in combination with docetaxel. Patients enrolled in this cohort receive ganetespib 150 mg/m^2 in combination with docetaxel 75 mg/m^2.
On Day 1 of each 3-week treatment cycle, ganetespib and docetaxel are administered as separate 1-hour intravenous infusions. Administration of ganetespib precedes the administration of docetaxel. There is a 1-hour “rest” period following the end of the ganetespib infusion and prior to docetaxel infusion.
On Day 15, patients receive 150 mg/m^2 single-agent ganetespib administered via a 1-hour intravenous infusion. […]

[2] = system: inflammatory breast cancer; assay: Phase 1b study of ganetespib with doxorubicin, cyclophosphamide and docetaxel; format: in vivo, patients; details: combination with doxorubicin
Excerpt: This is an open-label, multicenter, Phase 1b, dose-escalation study in patients with locally advanced and inflammatory breast cancer. The purpose of the study is to test the safety and tolerability of ganetespib in patients with operable breast cancer.
Eligible patients must be treatment naïve with histologic confirmation of breast adenocarcinoma, and a tumor that is readily accessible for sequential biopsy. Before the study, patients undergo a complete physical examination, laboratory investigations, chest x-ray, a mammogram and a breast ultrasonography and other imaging studies (e.g., MRI, PET-CT, or mammogram) to determine the local extent of the disease. Abdominal CT scan is performed to exclude metastatic disease. The methods used to document baseline status must be consistently used throughout the study. Prior to entering the study, HER2 status of the tumor is determined by the local lab.
A pharmacodynamics phase consists of ganetespib single agent given at a dose of 150 mg/m^2 twice for 1 week prior to start of dose escalation phase (approximately on Days −7 and −4). A pre-dose tumor biopsy is obtained within 15+/−3 days prior to initiating treatment with ganetespib. A post-treatment […] is obtained on Day −4, to evaluate the effects of ganetespib on downstream effectors regulating tumor proliferation and survival, as well as potential effects on HIF1-transcriptional activity. […]

CC(C)c1cc(-c2n[nH]c(=O)n2-c2ccc3c(ccn3C)c2)c(O)cc1O [ganetespib]
efficacy [1]: efficacious | efficacy [2]: efficacious | safety profile [2]: good safety profile
